Assays:
HeLa [1] = experiment: Cytotoxicity against human HeLa cells after 7 days by MTT assay; format: functional, cell-based; conditions: 168 h
[2] = Cytotoxicity against human resting lymphocytes after 3 days by MTT assay; format: cell-based; conditions: Lymphocyte, 72 h
[3] = Cytotoxicity against phytohaemagglutinin-stimulated human lymphocytes after 3 days by MTT assay; format: cell-based; conditions: Lymphocyte, 72 h
Plasmodium falciparum [4] = experiment: Resistance index, ratio of IC50 for chloroquine-resistant Plasmodium falciparum Dd2 to IC50 for chloroquine-sensitive Plasmodium falciparum D10; format: functional
HeLa [5] = experiment: Tumor specificity, ratio of IC50 for human resting and phytohaemagglutinin-stimulated lymphocytes to IC50 for human HeLa cells
Plasmodium falciparum [6] = experiment: Antiplasmodial activity against chloroquine-resistant Plasmodium falciparum Dd2; format: functional, organism-based
Plasmodium falciparum [7] = experiment: Antiplasmodial activity against chloroquine-sensitive Plasmodium falciparum D10; format: functional, organism-based

| Structure (SMILES) | IC50 (HeLa [1]) [nM] | IC50 [2] [nM] | IC50 [3] [nM] | Ratio IC50 (Plasmodium falciparum [4]) | Ratio IC50 (HeLa [5]) | IC50 (Plasmodium falciparum [6]) [nM] | IC50 (Plasmodium falciparum [7]) [nM] |
| --- | --- | --- | --- | --- | --- | --- | --- |
| C=CC(=O)O[C@@H]1O[C@@H]2O[C@@]3(C)CC[C@H]4[C@H](C)CC[C@@H]([C@H]1C)[C@@]24OO3 | 6370 | 39600 | 11500 | 1.6 | 4 | 9.27 | 5.85 |
| C=CC(=O)O[C@H]1O[C@@H]2O[C@@]3(C)CC[C@H]4[C@H](C)CC[C@@H]([C@H]1C)[C@@]24OO3 | 2880 | 30500 | 9220 | 1.6 | 6.9 | 12.4 | 7.54 |
| C[C@H]1[C@@H](OC(=O)CCNCCNc2ccnc3cc(Cl)ccc23)O[C@@H]2O[C@@]3(C)CC[C@H]4[C@H](C)CC[C@@H]1[C@@]24OO3 | 9470 | > 50000 | 16900 | 1 | 1.8 | 20.1 | 20.6 |
| C[C@H]1[C@@H](OC(=O)CCNCCCNc2ccnc3cc(Cl)ccc23)O[C@@H]2O[C@@]3(C)CC[C@H]4[C@H](C)CC[C@@H]1[C@@]24OO3 | 5580 | 21500 | 4710 | 1.3 | 2.4 | 24.4 | 18.7 |
| C[C@H]1[C@@H](OC(=O)CCNCCCCNc2ccnc3cc(Cl)ccc23)O[C@@H]2O[C@@]3(C)CC[C@H]4[C@H](C)CC[C@@H]1[C@@]24OO3 | 10100 | 32400 | 8990 | 1.1 | 2 | 27.5 | 24 |
| C[C@H]1[C@@H](OC(=O)CCNCCCCCCNc2ccnc3cc(Cl)ccc23)O[C@@H]2O[C@@]3(C)CC[C@H]4[C@H](C)CC[C@@H]1[C@@]24OO3 | 370 | 19000 | 3400 | 0.9 | 30.7 | 53.6 | 55.6 |
| C[C@H]1[C@@H](OC(=O)CCN2CCN(c3ccnc4cc(Cl)ccc34)CC2)O[C@@H]2O[C@@]3(C)CC[C@H]4[C@H](C)CC[C@@H]1[C@@]24OO3 | 6580 | 44600 | 14000 | 1 | 4.5 | 10 | 10.1 |
| C[C@H]1[C@H](OC(=O)CCN2CCCC2)O[C@@H]2O[C@@]3(C)CC[C@H]4[C@H](C)CC[C@@H]1[C@@]24OO3 | – | – | – | 1 | – | 11.4 | 11.3 |
| C[C@H]1[C@H](OC(=O)CCN2CCOCC2)O[C@@H]2O[C@@]3(C)CC[C@H]4[C@H](C)CC[C@@H]1[C@@]24OO3 | 4800 | > 50000 | 27300 | 1.4 | 5.7 | 9.02 | 6.23 |
| CCN(CC)CCC(=O)O[C@@H]1O[C@@H]2O[C@@]3(C)CC[C@H]4[C@H](C)CC[C@@H]([C@H]1C)[C@@]24OO3 | 6020 | > 50000 | 30400 | 1 | 5 | 13.6 | 13 |
| C[C@H]1[C@H](OC(=O)CCN(C)Cc2ccccc2)O[C@@H]2O[C@@]3(C)CC[C@H]4[C@H](C)CC[C@@H]1[C@@]24OO3 | 4480 | > 50000 | 25000 | 1.2 | 5.6 | 6.16 | 5.3 |
| CC(C)NCCC(=O)O[C@@H]1O[C@@H]2O[C@@]3(C)CC[C@H]4[C@H](C)CC[C@@H]([C@H]1C)[C@@]24OO3 | 13000 | – | – | 1.1 | – | 18.7 | 16.9 |
| C[C@H]1[C@H](OC(=O)CCN2CCNCC2)O[C@@H]2O[C@@]3(C)CC[C@H]4[C@H](C)CC[C@@H]1[C@@]24OO3 | 8910 | > 50000 | 31000 | 1.7 | 3.5 | 16 | 9.22 |
| C[C@H]1[C@H](OC(=O)CCN2CCN(C)CC2)O[C@@H]2O[C@@]3(C)CC[C@H]4[C@H](C)CC[C@@H]1[C@@]24OO3 | 6550 | > 50000 | 27200 | 1.8 | 4.1 | 12.6 | 7.16 |
| C[C@H]1[C@H](OC(=O)CCN2CCN(c3ccccc3)CC2)O[C@@H]2O[C@@]3(C)CC[C@H]4[C@H](C)CC[C@@H]1[C@@]24OO3 | 5760 | > 50000 | 27600 | 1.3 | 4.8 | 7.3 | 5.59 |
| NCCCNc1ccnc2cc(Cl)ccc12 | 9830 | – | – | 5.2 | – | 1250 | 240 |
| NCCCCNc1ccnc2cc(Cl)ccc12 | 11200 | – | – | 4.7 | – | 2270 | 483 |
| NCCCCCCNc1ccnc2cc(Cl)ccc12 | 15700 | – | – | 0.9 | – | 1860 | 2160 |
| Clc1ccc2c(N3CCNCC3)ccnc2c1 | 27600 | – | – | 1.1 | – | 1640 | 1460 |
| NCCNc1ccnc2cc(Cl)ccc12 | 7220 | – | – | 4.9 | – | 1140 | 231 |
| C[C@@H]1CC[C@H]2[C@@H](C)C(=O)O[C@@H]3O[C@@]4(C)CC[C@@H]1[C@]32OO4 [ARTEMISININ] | – | – | – | 1 | – | – | – |
| C[C@H]1[C@@H](O)O[C@@H]2O[C@@]3(C)CC[C@H]4[C@H](C)CC[C@@H]1[C@@]24OO3 [ARTENIMOL] | – | – | – | 0.75 | – | 3 | 4.1 |

Source: ChEMBL document CHEMBL1770072, “Antiplasmodial and antitumor activity of dihydroartemisinin analogs derived via the aza-Michael addition reaction” (Bioorg Med Chem Lett, 2011)
